Assays:
E. coli O157:H7 N192-5-1 = test: MIL-based whole-cell extraction; set-up: species or system Escherichia coli; conditions: 1×10^6 CFU mL^−1 in TSB, 15 μL MIL
Method: (§1) A universal schematic for MIL-based cell extraction is depicted in FIG. 7B. A 1 mL volume of diluted cell suspension was added to a flat-bottomed 4-mL screw cap glass vial. Fifteen microliters of either the Ni(II) or Dy(III) MIL was added and dispersed into microdroplets by vortex agitation for 30 s. The aqueous phase was decanted following dispersive extraction, and the MIL was subjected to a brief wash step using 1 mL of nuclease-free water (Integrated DNA Technologies, Coralville, IA, USA) to ensure adequate removal of loosely or incidentally bound cells. After washing, release of viable cells from the MIL extraction phase was carried out using a “back-extraction” step accomplished through addition of 1 mL of an ionically-rich nutritive medium comprised of 20 g L^−1 tryptone and 10 g L^−1 NaCl, followed by a 120 s vortex step. After back-extraction, aliquots of the cell-enriched back-extraction medium were enumerated using the track dilution method using 100×100 mm square, gridded TSA, BSA, CA or VRBGA plates.
(§2) Following back-extraction, aliquots of the cell-enriched back-extraction medium were serially diluted in 0.1% peptone water and a 10 μL aliquot of each dilution was applied to a separate lane on square plates containing an appropriate agar medium. The plates were then tilted at an approximately 80° angle for 15 min to allow the droplets to travel toward the opposite end of the plate. The plates were incubated for 24 h at 37° C. (TSA, VRBGA), for 48 h at 37° C. (BSA) or for 24 h at 37° C. (CA). Colonies were counted and colony forming units (CFU) were determined. The enrichment factor (EF) for MIL-based extraction was calculated using Equation 1, where CMIL represents the concentration of bacteria in suspension following extraction using the MIL and CS is the initial concentration of bacteria in the sample.
(§3) In order to explore the broader utility of our approach, evaluation of additional cell types is needed. We began this extended evaluation of the Ni(II) MIL with seven representative DNA subgroups of Salmonella and eight strains of E. coli O157:H7. Briefly, a 1 mL aliquot of TSB was inoculated with 1×10^6 CFU mL^−1 of bacteria, and spiked with 15 μL of the Ni(II) MIL. MIL-based extraction was performed and 10 μL aliquots of the back-extraction solution were enumerated using TSA and BSA plates (Salmonella) or TSA plates (E. coli O157:H7). […] We later determined that VRBGA was a suitable common medium for this purpose and used this in our statistical analysis. Average CFU counts were compared to standards that were not exposed to the Ni(II) MIL. Enrichment factors were calculated for Salmonella on both non-selective (TSA) and selective agars (BSA) and for E. coli O157:H7 on non-selective agar (TSA). […] Note: As BSA is a Salmonella-specific agar E. coli O157:H7 was not plated to BSA in this example.

E. coli O157:H7 N192-6-1 = test: MIL-based whole-cell extraction; set-up: species or system Escherichia coli; conditions: 1×10^6 CFU mL^−1 in TSB, 15 μL MIL
Method: as §1, §2, §3

E. coli O157:H7 N317-3-1 = test: MIL-based whole-cell extraction; set-up: species or system Escherichia coli; conditions: 1×10^6 CFU mL^−1 in TSB, 15 μL MIL
Method: as §1, §2, §3

E. coli O157:H7 N336-4-1 = test: MIL-based whole-cell extraction; set-up: species or system Escherichia coli; conditions: 1×10^6 CFU mL^−1 in TSB, 15 μL MIL
Method: as §1, §2, §3

E. coli O157:H7 N366-2-2 = test: MIL-based whole-cell extraction; set-up: species or system Escherichia coli; conditions: 1×10^6 CFU mL^−1 in TSB, 15 μL MIL
Method: as §1, §2, §3

E. coli O157:H7 N405-5-8 = test: MIL-based whole-cell extraction; set-up: species or system Escherichia coli; conditions: 1×10^6 CFU mL^−1 in TSB, 15 μL MIL
Method: as §1, §2, §3

E. coli O157:H7 N549-3-1 = test: MIL-based whole-cell extraction; set-up: species or system Escherichia coli; conditions: 1×10^6 CFU mL^−1 in TSB, 15 μL MIL
Method: as §1, §2, §3

E. coli O157:H7 N886-71 = test: MIL-based whole-cell extraction; set-up: species or system Escherichia coli; conditions: 1×10^6 CFU mL^−1 in TSB, 15 μL MIL
Method: as §1, §2, §3

E. coli O157:H7 = format: cell-based, Escherichia coli; conditions: no significant differences (p-value=0.4491)
Method: The following statistical analysis was performed in SAS 9.4. Four master suspensions of bacteria were prepared for four Salmonella enterica serovars: subsp. typhimurium, subsp. arizonae, subsp. diarizonae and subsp. houtenae. Two master suspensions were made for the remaining three Salmonella serovars or species: S. enterica subsp. indica, subsp. salamae and S. bongori. For E. coli O157:H7, two master suspensions of bacteria were prepared for each of the eight strains studied. For all bacteria tested, two replicate extractions from the same master suspension were performed, using the 10-3 dilution. Following MIL-based capture, back-extraction solutions were plated to non-selective agar (TSA) and selective agar (BSA) for Salmonella and SMAC for E. coli. To identify whether significant differences existed for the capture of Salmonella and E. coli O157:H7, we applied a linear mixed model for the response variable (enrichment factor) with log transformation in order to reduce skewness. […]
In order to explore the broader utility of our approach, evaluation of additional cell types is needed. […] We later determined that VRBGA was a suitable common medium for this purpose and used this in our statistical analysis. […] Enrichment factors were calculated for Salmonella on both non-selective (TSA) and selective agars (BSA) and for E. coli O157:H7 on non-selective agar (TSA). […]

SMILES: CCCCCCCCCCCCCC[P+](CCCCCC)(CCCCCC)CCCCCC.O=C([CH-]C(=O)C(F)(F)F)C(F)(F)F.O=C([CH-]C(=O)C(F)(F)F)C(F)(F)F.O=C([CH-]C(=O)C(F)(F)F)C(F)(F)F.[Ni+2] [Ni(II) MIL, [P66614^+][Ni(hfacac)3^−]]
- Enrichment Factor (TSA) (E. coli O157:H7 N192-5-1): 7
- Enrichment Factor (TSA) (E. coli O157:H7 N192-6-1): 9
- Enrichment Factor (TSA) (E. coli O157:H7 N317-3-1): 4
- Enrichment Factor (TSA) (E. coli O157:H7 N336-4-1): 3
- Enrichment Factor (TSA) (E. coli O157:H7 N366-2-2): 4
- Enrichment Factor (TSA) (E. coli O157:H7 N405-5-8): 2
- Enrichment Factor (TSA) (E. coli O157:H7 N549-3-1): 8
- Enrichment Factor (TSA) (E. coli O157:H7 N886-71): 4
- MIL-conferred injury: recovery on TSA vs VRBGA (E. coli O157:H7): no injury could be detected

Reference: patent US12416052B2, “Capturing, concentrating, and detecting microbes in a sample using magnetic ionic liquids and recombinase polymerase amplification” (priority 2019, dated 2025)
